Test results: US7846928B2, “Substituted pyrazolopyridines and salts thereof, pharmaceutical compositions comprising same, methods of preparing same and uses of same” (Bayer Schering Pharma AG, priority 2006, dated 2010)

Legend:
Tie2 [1] = target: T1, Tie2 (Homo sapiens, UniProt Q02763); assay: Tie2 ELISA assay (assay 1): cellular Tie2 autophosphorylation in Tie2-transfected CHO cells stimulated by angiopoietin-2; type: cell-based; set-up: expressed in transfected cells; host or cells: CHO (DHFR-deficient), stably transfected: CHO Tie2/DHFR; conditions: CHO Tie2/DHFR cells, Ang2 stimulated, Tie2 autophosphorylation sandwich-ELISA; pIC50 = -log IC50 molar; read-out: Tie 2 activity (assay 1)
Description: Cellular activity of compounds of the present invention as inhibitors of Tie2 kinase activity was measured employing a Tie2 ELISA assay as described in the following paragraphs. Herein CHO cell-cultures, which are stably transfected by known techniques with Tie2 using DHFR deficiency as selection marker, are stimulated by angiopoietin-2. The specific autophosphorylation of Tie2 receptors is quantified with a sandwich-ELISA using anti-Tie2 antibodies for catch and anti-phosphotyrosine antibodies coupled to HRP for detection.
• 96 well tissue culture plate, sterile, Greiner • 96 well FluoroNunc plate MaxiSorp Surface C, Nunc • 96 well plate polypropylene for compound dilution in DMSO • CHO Tie2/DHFR (transfected cells) • PBS−; PBS++, DMSO • MEM alpha Medium with Glutamax-I without Ribonucleosides and • Deoxyribonucleosides (Gibco #32561-029) • with 10% FCS after dialysis! and 1% PenStrep • Lysis buffer: 1 Tablet “Complete” protease inhibitor • 1 cap Vanadate (1 mL>40 mg/mL; working solution 2 mM) • ad 50 mL with Duschl-Puffer • pH 7.6 • Anti-Tie2-antibody 1:425 in Coating Buffer pH 9.6 • Stock solution: 1.275 mg/mL>working: 3 μg/mL • PBST: 2 bottles PBS(10×)+10 ml Tween, fill up with VE-water • RotiBlock 1:10 in VE-water • Anti-Phosphotyrosine HRP-Conjugated 1:10000 in 3% TopBlock • 3% TopBlock in PBST • BM Chemiluminescence ELISA Substrate (POD) • solution B1:100 solution A • SF9 cell culture medium • Ang2-Fc in SF9 cell culture medium Cell Experiment: • Dispense 5×10^4 cells/well/98 μL in 96 well tissue culture plate • Incubate at 37° C./5% CO2 • After 24 h add compounds according to desired concentrations • Add also to control and stimulated values without compounds 2 μL DMSO • And mix for a few min at room temperature • Add 100 μL Ang2-Fc to all wells except control, which receives insect medium • Incubate 20 min at 37° C. • Wash 3× with PBS++ • Add 100 μl Lysis buffer/well and shake a couple of min at room temperature • Store lysates at 20° C. before utilizing for the ELISA Performance of Sandwich-ELISA • Coat 96 well FluoroNunc Plate MaxiSorp Surface C with anti-Tie2 mAb • 1:425 in Coating buffer pH 9.6; 100 μL/well overnight at 4° C. • Wash 2× with PBST • Block plates with 250 μL/well RotiBlock 1:10 in VE-water • Incubate for 2 h at room temperature or overnight at 4° C. shaking • Wash 2× in PBST • Add thawed lysates to wells and incubate overnight shaking at 4° C. • Wash 2× with PBST • Add 100 μL/well anti-Phosphotyrosine HRP-Conjugated 1:10000 in 3% • TopBlock (3% TopBlock in PBST) and incubate overnight under shaking • Wash 6× with PBST • Add 100 μL/well BM Chemiluminescence ELISA Substrate (POD) • solutions 1 und 2 (1:100) • Determine luminescence with the LumiCount. Assay 2: Tie-2-Kinase HTRF-Assay without Kinase Preactivation
Target sequence in this assay (Q02763 23-1124): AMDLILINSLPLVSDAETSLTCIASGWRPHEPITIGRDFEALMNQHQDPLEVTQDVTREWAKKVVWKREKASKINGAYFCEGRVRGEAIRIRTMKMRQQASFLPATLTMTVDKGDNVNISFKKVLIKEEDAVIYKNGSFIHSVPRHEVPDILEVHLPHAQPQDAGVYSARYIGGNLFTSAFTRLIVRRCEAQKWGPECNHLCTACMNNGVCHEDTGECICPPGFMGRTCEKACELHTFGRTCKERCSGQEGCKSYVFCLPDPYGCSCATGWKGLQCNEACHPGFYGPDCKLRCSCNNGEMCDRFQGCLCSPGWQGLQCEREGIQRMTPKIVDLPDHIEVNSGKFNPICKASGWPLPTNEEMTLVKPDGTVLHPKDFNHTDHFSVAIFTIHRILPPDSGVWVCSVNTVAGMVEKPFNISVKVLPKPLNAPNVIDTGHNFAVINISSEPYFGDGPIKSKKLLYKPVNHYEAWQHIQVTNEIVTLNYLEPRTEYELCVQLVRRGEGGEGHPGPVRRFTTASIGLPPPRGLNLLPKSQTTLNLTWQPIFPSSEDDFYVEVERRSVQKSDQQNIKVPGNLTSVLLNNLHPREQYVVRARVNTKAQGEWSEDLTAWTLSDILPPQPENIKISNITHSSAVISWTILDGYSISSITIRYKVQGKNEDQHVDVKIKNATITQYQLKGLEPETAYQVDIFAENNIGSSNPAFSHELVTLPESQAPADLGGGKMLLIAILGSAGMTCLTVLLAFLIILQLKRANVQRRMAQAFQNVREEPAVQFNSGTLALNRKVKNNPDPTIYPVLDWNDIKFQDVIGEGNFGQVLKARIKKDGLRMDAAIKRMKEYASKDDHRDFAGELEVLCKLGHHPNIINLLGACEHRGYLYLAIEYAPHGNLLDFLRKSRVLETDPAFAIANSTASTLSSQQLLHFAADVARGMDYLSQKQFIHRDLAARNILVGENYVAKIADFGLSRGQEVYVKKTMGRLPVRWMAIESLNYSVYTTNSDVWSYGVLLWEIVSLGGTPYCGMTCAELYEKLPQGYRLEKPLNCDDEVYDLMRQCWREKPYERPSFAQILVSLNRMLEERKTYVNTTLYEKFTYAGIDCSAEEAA

Tie2 [2] = target: T1, Tie2; assay: Tie-2-Kinase HTRF-Assay without kinase preactivation (assay 2); type: biochemical; set-up: fusion protein of GST and the intracellular domains of Tie-2; GST; made in house; host or cells: insect cells (Hi-5); conditions: GST-Tie-2 without preactivation, 10 μM ATP; pIC50 = -log IC50 molar
From the text: Tie2-inhibitory activity of compounds of the present invention was quantified employing two Tie2 HTRF assay as described in the following paragraphs.
A recombinant fusion protein of GST and the intracellular domains of Tie-2, expressed in insect cells (Hi-5) and purified by Glutathion-Sepharose affinity chromatography was used as kinase. Alternatively, commercially available GST-Tie2-fusion protein (Upstate Biotechnology, Dundee, Scotland) can be used As substrate for the kinase reaction the biotinylated peptide biotin-Ahx-EPKDDAYPLYSDFG (C-terminus in amid form) was used which can be purchased e.g. from the company Biosynthan GmbH (Berlin-Buch, Germany). Detection of phosphorylated product is achieved specifically by a trimeric detection complex consisting of the phosphorylated substrate, streptavidin-XLent (SA-XLent) which binds to biotin, and Europium Cryptate-labeled anti-phosphotyrosine antibody PT66 which binds to phosphorylated tyrosine.
Tie-2 (3.5 ng/measurement point) was incubated for 60 min at 22° C. in the presence of 10 μM adenosine-tri-phosphate (ATP) and 1 μM substrate peptide (biotin-Ahx-EPKDDAYPLYSDFG-NH2) with different concentrations of test compounds (0 μM and concentrations in the range 0.001-20 μM) in 5 μl assay buffer [50 mM Hepes/NaOH pH 7, 10 mM MgCl2, 0.5 mM MnCl2, 1.0 mM dithiothreitol, 0.01% NP40, protease inhibitor mixture (“Complete w/o EDTA” from Roche, 1 tablet per 2.5 ml), 1% (v/v) dimethylsulfoxide]. The reaction was stopped by the addition of 5 μl of an aqueous buffer (25 mM Hepes/NaOH pH 7.5, 0.28% (w/v) bovine serum albumin) containing EDTA (90 mM) and the HTRF (Homogeneous Time Resolved Fluorescence) detection reagents streptavidine-XLent (0.2 μM, from Cis Biointernational, Marcoule, France) and PT66-Eu-Chelate (0.3 ng/μl; a europium-chelate labelled anti-phospho-tyrosine antibody from Perkin Elmer).
The resulting mixture was incubated 1 h at 22° C. to allow the binding of the biotinylated phosphorylated peptide to the streptavidine-XLent and the PT66-Eu-Chelate. Subsequently the amount of phosphorylated substrate peptide was evaluated by measurement of the resonance energy transfer from the PT66-Eu-Chelate to the streptavidine-XLent. Therefore, the fluorescence emissions at 620 nm and 665 nm after excitation at 350 nm was measured in a HTRF reader, e.g. a Rubystar (BMG Labtechnologies, Offenburg, Germany) or a Viewlux (Perkin-Elmer). The ratio of the emissions at 665 nm and at […] was taken as the measure for the amount of phosphorylated substrate peptide. The data were normalised (enzyme reaction without inhibitor=0% inhibition, all other assay components but no enzyme=100% inhibition) and IC50 values were calculated by a 4 parameter fit using an inhouse software.
Target sequence in this assay (Q02763 770-1124 limits assumed): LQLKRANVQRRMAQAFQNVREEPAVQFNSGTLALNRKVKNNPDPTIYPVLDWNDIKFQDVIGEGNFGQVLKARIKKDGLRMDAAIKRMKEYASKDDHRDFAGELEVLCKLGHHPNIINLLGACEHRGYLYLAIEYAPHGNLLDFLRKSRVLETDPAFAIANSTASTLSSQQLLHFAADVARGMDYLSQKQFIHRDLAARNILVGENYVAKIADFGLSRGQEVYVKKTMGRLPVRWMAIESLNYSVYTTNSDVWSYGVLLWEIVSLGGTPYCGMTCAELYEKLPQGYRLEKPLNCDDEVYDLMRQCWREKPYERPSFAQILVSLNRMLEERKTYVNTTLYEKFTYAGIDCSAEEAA

Structure (SMILES)	IC50 (Tie2 [1]) [nM]	IC50 (Tie2 [2]) [nM]
CN1CCN(Cc2ccc(NC(=O)Nc3ccc(-c4ccnc5c4cnn5C)cc3)cc2C(F)(F)F)CC1 [1.24, 1-[4-(4-Methyl-piperazin-1-ylmethyl)-3-trifluoromethyl-phenyl]-3-[4-(1-methyl-1H-pyrazolo[3,4-b]pyridin-4-yl)-phenyl]-urea]	< 501	< 501
Cn1ncc2c(-c3ccc(NC(=O)Nc4cccc(C(F)(F)F)c4)cc3)cc(CN3CCOCC3)nc21 [3.2, 1-[4-(1-Methyl-6-morpholin-4-ylmethyl-1H-pyrazolo[3,4-b]pyridin-4-yl)-phenyl]-3-(3-trifluoromethyl-phenyl)-urea]	< 501	< 501
Cc1ccc(F)c(NC(=O)Nc2ccc(-c3cc(CN4CCOCC4)nc4c3cnn4C)cc2)c1 [3.5, 1-(2-Fluoro-5-methyl-phenyl)-3-[4-(1-methyl-6-morpholin-4-ylmethyl-1H-pyrazolo[3,4-b]pyridin-4-yl)-phenyl]-urea]	< 501	< 501
Cn1ncc2c(-c3ccc(NC(=O)Nc4cccc(C(F)(F)F)c4)cc3)cc(C3CCCCC3)nc21 [1.38, 1-[4-(6-Cyclohexyl-1-methyl-1H-pyrazolo[3,4-b]pyridin-4-yl)-phenyl]-3-(3-trifluoromethyl-phenyl)-urea]	< 501	< 501
Cc1cc(-c2ccc(NC(=O)Nc3cccc(C(F)(F)F)c3)cc2)c2cn[nH]c2n1 [1.18, 1-[4-(6-Methyl-1H-pyrazolo[3,4-b]pyridin-4-yl)-phenyl]-3-(3-trifluoromethyl-phenyl)-urea]	< 501	< 501
CN(C)C(=O)C1(c2cc(-c3ccc(NC(=O)Nc4cccc(C(F)(F)F)c4)cc3)c3cnn(C)c3n2)CC1 [1.26, 1-(1-Methyl-4-{4-[3-(3-trifluoromethyl-phenyl)-ureido]-phenyl}-1H-pyrazolo[3,4-b]pyridin-6-yl)-cyclopropane-carboxylic acid dimethylamide]	< 501	< 501
CN1CCC(Oc2ccc(NC(=O)Nc3ccc(-c4ccnc5c4cnn5C)cc3)cc2C(F)(F)F)CC1 [1.23, 1-[4-(1-Methyl-piperidin-4-yloxy)-3-trifluoromethyl-phenyl]-3-[4-(1-methyl-1H-pyrazolo[3,4-b]pyridin-4-yl)-phenyl]-urea]	< 501	< 501
CN1CCN(Cc2ccc(NC(=O)Nc3ccc(-c4cc(C(C)(C)C)nc5[nH]ncc45)cc3)cc2C(F)(F)F)CC1 [1.15, 1-[4-(6-tert-Butyl-1H-pyrazolo[3,4-b]pyridin-4-yl)-phenyl]-3-[4-(4-methyl-piperazin-1-ylmethyl)-3-trifluoromethyl-phenyl]-urea]	< 501	< 501

Continued, values first:

IC50 (Tie2 [1]) [nM]	IC50 (Tie2 [2]) [nM]	Structure (SMILES)
< 501	< 501	CCc1cccc(NC(=O)Nc2ccc(-c3cc(C(C)(C)C)nc4[nH]ncc34)cc2)c1 [1.1, 1-[4-(6-tert-Butyl-1H-pyrazolo[3,4-b]pyridin-4-yl)-phenyl]-3-(3-ethylphenyl)-urea]
< 501	< 501	CC(C)c1cc(-c2ccc(NC(=O)Nc3cccc(C(F)(F)F)c3)cc2)c2cnn(C)c2n1 [1.3, 1-[4-(6-Isopropyl-1-methyl-1H-pyrazolo[3,4-b]pyridin-4-yl)-phenyl]-3-(3-trifluoromethyl-phenyl)-urea]
< 501	< 501	Cc1cc(-c2ccc(NC(=O)Nc3cc(F)cc(C(F)(F)F)c3)cc2)c2cnn(C)c2n1 [2.4, 1-[4-(1,6-Dimethyl-1H-pyrazolo[3,4-b]pyridin-4-yl)-phenyl]-3-(3-fluoro-5-trifluoromethyl-phenyl)-urea]
< 501	< 501	CCc1cccc(NC(=O)Nc2ccc(-c3cc(CN4CCOCC4)nc4c3cnn4C)cc2)c1 [3.4, 1-(3-Ethyl-phenyl)-3-[4-(1-methyl-6-morpholin-4-ylmethyl-1H-pyrazolo[3,4-b]pyridin-4-yl)-phenyl]-urea]
< 501	501 to 1000	Cc1ccc(F)c(NC(=O)Nc2ccc(-c3ccnc4[nH]ncc34)cc2)c1 [1.22, 1-(2-Fluoro-5-methyl-phenyl)-3-[4-(1H-pyrazolo[3,4-b]pyridin-4-yl)-phenyl]-urea]
501 to 1000	501 to 1000	Cc1cccc(NC(=O)Nc2ccc(-c3cc(C(C)(C)C)nc4[nH]ncc34)cc2)c1 [1.11, 1-[4-(6-tert-Butyl-1H-pyrazolo[3,4-b]pyridin-4-yl)-phenyl]-3-m-tolyl-urea]
< 501	< 501	Cc1ccc(F)c(NC(=O)Nc2ccc(-c3cc(C4(C(=O)N(C)C)CC4)nc4c3cnn4C)cc2)c1 [1.29, 1-(4-{4-[3-(2-Fluoro-5-methyl-phenyl)-ureido]-phenyl}-1-methyl-1H-pyrazolo[3,4-b]pyridin-6-yl)-cyclopropane-carboxylic acid dimethylamide]
501 to 1000	501 to 1000	Cc1cc(-c2ccc(NC(=O)Nc3ccc(F)c(C(F)(F)F)c3)cc2)c2cnn(C)c2n1 [2.5, 1-[4-(1,6-Dimethyl-1H-pyrazolo[3,4-b]pyridin-4-yl)-phenyl]-3-(4-fluoro-3-trifluoromethyl-phenyl)-urea]
< 501	< 501	Cn1ncc2c(-c3ccc(NC(=O)Nc4cccc(C(F)(F)F)c4)cc3)ccnc21 [1.4, 1-[4-(1-Methyl-1H-pyrazolo[3,4-b]pyridin-4-yl)-phenyl]-3-(3-trifluoromethyl-phenyl)-urea]
< 501	< 501	O=C(Nc1ccc(-c2ccnc3[nH]ncc23)cc1)Nc1cccc(C(F)(F)F)c1 [1.20, 1-[4-(1H-Pyrazolo[3,4-b]pyridin-4-yl)-phenyl]-3-(3-trifluoromethyl-phenyl)-urea]
